Assay results taken from patent publication US20250171437A1 (Agios Pharmaceuticals,Inc., priority 2022, published 2025).

The molecules below were run against T1, human PAH with the R408W mutation (A375 R408W cells) (Homo sapiens, UniProt P00439, R408W) (assay: Cell Based Phenylalanine Flux Assay). Settings: A375 R408W cells; 24 hrs with compound, then 20 μM sepiapterin and 800 μM 13C9,15N-Phenylalanine for 4 hours; 13C-Tyrosine by LC-MS; average where tested multiple times.
T1 construct: expressed in transfected cells
T1 sequence (P00439 1-452 R408W): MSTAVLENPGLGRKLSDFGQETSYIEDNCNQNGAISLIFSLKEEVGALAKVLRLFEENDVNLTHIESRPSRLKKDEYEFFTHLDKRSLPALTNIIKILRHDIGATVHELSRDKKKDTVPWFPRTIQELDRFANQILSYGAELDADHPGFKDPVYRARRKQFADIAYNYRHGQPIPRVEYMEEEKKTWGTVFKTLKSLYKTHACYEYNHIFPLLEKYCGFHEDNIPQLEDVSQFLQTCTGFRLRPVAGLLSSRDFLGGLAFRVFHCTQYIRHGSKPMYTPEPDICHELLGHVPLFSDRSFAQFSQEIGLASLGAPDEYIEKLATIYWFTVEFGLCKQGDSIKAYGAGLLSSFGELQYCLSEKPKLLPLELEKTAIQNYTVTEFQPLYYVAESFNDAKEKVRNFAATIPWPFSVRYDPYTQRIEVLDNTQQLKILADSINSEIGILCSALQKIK
Outline: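 A375 cells stably expressing human PAH R408W treated 24 h at 37° C with a 10-point 2-fold dose curve in duplicate, 0.5% DMSO. Then 20 μM sepiapterin and 800 μM 13C9,15N-Phe added for 4 h; 13C-Tyr in media measured by LC-MS to give AC50.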

**Q.** For `O=C(c1oc(C2(O)CC2)nc1C(F)F)N1CCc2[nH]cnc2[C@@H]1c1nc2cc(F)ccc2o1` [Example 142, (R)-(4-(difluoromethyl)-2-(1-hydroxycyclopropyl)oxazol-5-yl)(4-(5-fluorobenzo[d]oxazol-2-yl)-6,7-dihydro-1H-imidazo[4,5-c]pyridin-5(4H)-yl)methanone], which AC50 is on record?
**A.** Its AC50 is 1 to 5 µM.

**Q.** `O=C(c1ocnc1C(F)F)N1CCc2[nH]cnc2[C@@H]1c1nc2cc(F)c(F)cc2o1` [Example 296, (R)-(4-(5,6-difluorobenzo[d]oxazol-2-yl)-6,7-dihydro-1H-imidazo[4,5-c]pyridin-5(4H)-yl)(4-(difluoromethyl)oxazol-5-yl)methanone] was tested. Which AC50 did it give?
**A.** Its AC50 is 1 to 5 µM.

**Q.** For `CN1CCN(c2nc(C(F)F)c(C(=O)N3CCc4[nH]cnc4[C@@H]3c3nc4cc(F)ccc4o3)o2)CC1` [Example 404, (R)-(4-(difluoromethyl)-2-(4-methylpiperazin-1-yl)oxazol-5-yl)(4-(5-fluorobenzo[d]oxazol-2-yl)-6,7-dihydro-1H-imidazo[4,5-c]pyridin-5(4H)-yl)methanone], which AC50 is on record?
**A.** The AC50 was 1 to 5 µM.

**Q.** For `O=C(c1ocnc1C(F)F)N1CCc2[nH]cnc2[C@H]1c1nc2ccc(F)cc2o1` [Example 163, (S)-(4-(difluoromethyl)oxazol-5-yl)(4-(6-fluorobenzo[d]oxazol-2-yl)-6,7-dihydro-1H-imidazo[4,5-c]pyridin-5(4H)-yl)methanone], which AC50 is on record?
**A.** The AC50 was at most 0.5 µM.

**Q.** With `Cn1nc(C(F)(F)F)nc1C(=O)N1CCc2[nH]cnc2[C@@H]1c1nc2ccccc2o1` [Example 684, (R)-(4-(benzo[d]oxazol-2-yl)-6,7-dihydro-1H-imidazo[4,5-c]pyridin-5(4H)-yl)(1-methyl-3-(trifluoromethyl)-1H-1,2,4-triazol-5-yl)methanone] as the molecule, how does the AC50 read?
**A.** Its AC50 is 1 to 5 µM.

**Q.** How did the AC50 turn out when `Cc1ccc2nc([C@H]3c4nc[nH]c4CCN3C(=O)c3nnc(-c4ccn(C)n4)o3)oc2c1` [Example 358, (R)-(5-(1-methyl-1H-pyrazol-3-yl)-1,3,4-oxadiazol-2-yl)(4-(6-methylbenzo[d]oxazol-2-yl)-6,7-dihydro-1H-imidazo[4,5-c]pyridin-5(4H)-yl)methanone] was run?
**A.** Its AC50 is 1 to 5 µM.

**Q.** For `O=C(c1ccnn1C(F)F)N1CCc2[nH]cnc2[C@H]1c1nc2ccc(F)cc2o1` [Example 189, (S)-(1-(difluoromethyl)-1H-pyrazol-5-yl)(4-(6-fluorobenzo[d]oxazol-2-yl)-6,7-dihydro-1H-imidazo[4,5-c]pyridin-5(4H)-yl)methanone], which AC50 is on record?
**A.** Its AC50 is 0.5 to 1 µM.

**Q.** Which AC50 does the source give for `[2H]C([2H])([2H])OCc1nc(C(F)F)c(C(=O)N2CCc3[nH]cnc3[C@@H]2c2nc3cc(F)ccc3o2)o1` [Example 156, (R)-(4-(difluoromethyl)-2-((methoxy-d3)methyl)oxazol-5-yl)(4-(5-fluorobenzo[d]oxazol-2-yl)-1,4,6,7-tetrahydro-5H-imidazo[4,5-c]pyridin-5-yl)methanone] here?
**A.** Its AC50 is 1 to 5 µM.

**Q.** Which AC50 does the source give for `O=C(c1ccnn1C(F)F)N1CCc2[nH]cnc2[C@@H]1c1nc2c(F)ccc(F)c2o1` [Example 488, (R)-(4-(4,7-difluorobenzo[d]oxazol-2-yl)-6,7-dihydro-1H-imidazo[4,5-c]pyridin-5(4H)-yl)(1-(difluoromethyl)-1H-pyrazol-5-yl)methanone] here?
**A.** The AC50 was 1 to 5 µM.

**Q.** How did the AC50 turn out when `CC(F)(F)c1ncoc1C(=O)N1CCc2[nH]cnc2[C@H]1c1nc2cccc(F)c2o1` [Example 620, (S)-(4-(1,1-difluoroethyl)oxazol-5-yl)(4-(7-fluorobenzo[d]oxazol-2-yl)-6,7-dihydro-1H-imidazo[4,5-c]pyridin-5(4H)-yl)methanone] was run?
**A.** The AC50 was at most 0.5 µM.

**Q.** `C[C@H](O)c1nc(C(F)F)c(C(=O)N2CCc3[nH]cnc3[C@@H]2c2nc3ccc(F)cc3o2)o1` [Example 232, (4-(difluoromethyl)-2-((S)-1-hydroxyethyl)oxazol-5-yl)((R)-4-(6-fluorobenzo[d]oxazol-2-yl)-6,7-dihydro-1H-imidazo[4,5-c]pyridin-5(4H)-yl)methanone] was tested. Which AC50 did it give?
**A.** The AC50 was 1 to 5 µM.

**Q.** Which AC50 does the source give for `Cc1cccc2nc([C@@H]3c4nc[nH]c4CCN3C(=O)c3ocnc3C(F)F)oc12` [Example 393, (S)-(4-(difluoromethyl)oxazol-5-yl)(4-(7-methylbenzo[d]oxazol-2-yl)-6,7-dihydro-1H-imidazo[4,5-c]pyridin-5(4H)-yl)methanone] here?
**A.** The AC50 was at most 0.5 µM.

**Q.** How did the AC50 turn out when `Cc1cccc2oc([C@H]3c4nc[nH]c4CCN3C(=O)c3nnc(-c4ccccn4)o3)nc12` [Example 481, (R)-(4-(4-methylbenzo[d]oxazol-2-yl)-6,7-dihydro-1H-imidazo[4,5-c]pyridin-5(4H)-yl)(5-(pyridin-2-yl)-1,3,4-oxadiazol-2-yl)methanone] was run?
**A.** Its AC50 is 0.5 to 1 µM.

**Q.** `C[C@H](O)c1nc(C(F)F)c(C(=O)N2CCc3[nH]cnc3[C@@H]2c2nc3cccc(F)c3o2)o1` [Example 244, (4-(difluoromethyl)-2-((S)-1-hydroxyethyl)oxazol-5-yl)((R)-4-(7-fluorobenzo[d]oxazol-2-yl)-6,7-dihydro-1H-imidazo[4,5-c]pyridin-5(4H)-yl)methanone] was tested. Which AC50 did it give?
**A.** Its AC50 is 0.5 to 1 µM.

**Q.** How did the AC50 turn out when `Cc1nc(-c2ccccn2)oc1C(=O)N1CCc2[nH]cnc2[C@@H]1c1nc2cccc(F)c2o1` [Example 593, (R)-(4-(7-fluorobenzo[d]oxazol-2-yl)-6,7-dihydro-1H-imidazo[4,5-c]pyridin-5(4H)-yl)(4-methyl-2-(pyridin-2-yl)oxazol-5-yl)methanone] was run?
**A.** Its AC50 is 1 to 5 µM.

**Q.** `Cc1ccc2oc([C@H]3c4nc[nH]c4CCN3C(=O)c3nnc(-c4ccc(F)cn4)o3)nc2c1` [Example 100, (R)-(5-(5-fluoropyridin-2-yl)-1,3,4-oxadiazol-2-yl)(4-(5-methylbenzo[d]oxazol-2-yl)-6,7-dihydro-1H-imidazo[4,5-c]pyridin-5(4H)-yl)methanone] was tested. Which AC50 did it give?
**A.** Its AC50 is 1 to 5 µM.

**Q.** With `O=C(c1ccnn1-c1ccccn1)N1CCc2[nH]cnc2[C@H]1c1nc2cccc(F)c2o1` [Example 729, (S)-(4-(7-fluorobenzo[d]oxazol-2-yl)-6,7-dihydro-1H-imidazo[4,5-c]pyridin-5(4H)-yl)(1-(pyridin-2-yl)-1H-pyrazol-5-yl)methanone] as the molecule, how does the AC50 read?
**A.** The AC50 was 0.5 to 1 µM.

**Q.** Which AC50 does the source give for `Cc1cccc2nc([C@@H]3c4nc[nH]c4CCN3C(=O)c3nnc(-c4ccccn4)o3)oc12` [Example 567, (S)-(4-(7-methylbenzo[d]oxazol-2-yl)-6,7-dihydro-1H-imidazo[4,5-c]pyridin-5(4H)-yl)(5-(pyridin-2-yl)-1,3,4-oxadiazol-2-yl)methanone] here?
**A.** Its AC50 is at most 0.5 µM.

**Q.** How did the AC50 turn out when `O=C(c1nnc(-c2ccccn2)o1)N1CCc2[nH]cnc2[C@H]1c1nc2c(F)cccc2o1` [Example 333, (S)-(4-(4-fluorobenzo[d]oxazol-2-yl)-6,7-dihydro-1H-imidazo[4,5-c]pyridin-5(4H)-yl)(5-(pyridin-2-yl)-1,3,4-oxadiazol-2-yl)methanone] was run?
**A.** Its AC50 is at most 0.5 µM.

**Q.** `Cc1ccc2oc([C@H]3c4nc[nH]c4CCN3C(=O)c3ocnc3C(F)F)nc2c1` [Example 138, (R)-(4-(difluoromethyl)oxazol-5-yl)(4-(5-methylbenzo[d]oxazol-2-yl)-6,7-dihydro-1H-imidazo[4,5-c]pyridin-5(4H)-yl)methanone] was tested. Which AC50 did it give?
**A.** The AC50 was at most 0.5 µM.

**Q.** Which AC50 does the source give for `CN(C)C(C)(C)c1nc(C(F)F)c(C(=O)N2CCc3[nH]cnc3[C@H]2c2nc3cc(F)ccc3o2)o1` [Example 291, (S)-(4-(difluoromethyl)-2-(2-(dimethylamino)propan-2-yl)oxazol-5-yl)(4-(5-fluorobenzo[d]oxazol-2-yl)-6,7-dihydro-1H-imidazo[4,5-c]pyridin-5(4H)-yl)methanone] here?
**A.** Its AC50 is at most 0.5 µM.

**Q.** `Cn1cnc(-c2nc(C(F)F)c(C(=O)N3CCc4[nH]cnc4[C@@H]3c3nc4cccc(F)c4o3)o2)c1` [Example 891, (R)-(4-(difluoromethyl)-2-(1-methyl-1H-imidazol-4-yl)oxazol-5-yl)(4-(7-fluorobenzo[d]oxazol-2-yl)-1,4,6,7-tetrahydro-5H-imidazo[4,5-c]pyridin-5-yl)methanone] was tested. Which AC50 did it give?
**A.** The AC50 was 1 to 5 µM.

Same assay, conditions: A375 cells expressing R408W PAH; 24 hrs with compound, then 20 μM sepiapterin and 800 μM 13C9,15N-Phenylalanine for 4 hours; 13C-Tyrosine by LC-MS; average where tested multiple times

**Q.** With `Cc1ccc2oc(C3c4nc[nH]c4CCN3C(=O)c3nnc(C)o3)nc2c1` (stereo not shown) as the molecule, how does the AC50 read?
**A.** Its AC50 is at least 5 µM.

**Q.** With `Cc1nc(C2(O)CCC2)oc1C(=O)N1CCc2[nH]cnc2C1c1nc2cc(F)ccc2o1` (stereo not shown) as the molecule, how does the AC50 read?
**A.** Its AC50 is 1 to 5 µM.

**Q.** For `Cc1cccc2nc([C@H]3c4nc[nH]c4CCN3C(=O)c3cnn4cc(N5CCC(O)CC5)ccc34)oc12` (single isomer, unassigned), which AC50 is on record?
**A.** Its AC50 is at least 5 µM.

**Q.** Which AC50 does the source give for `COc1ccc2oc(C3c4nc[nH]c4CCN3C(=O)c3cnco3)nc2c1` (stereo not shown) here?
**A.** Its AC50 is 1 to 5 µM.

**Q.** How did the AC50 turn out when `CC1CN(C(=O)c2oc(C(C)(C)O)nc2C(F)F)C(c2nc3cc(F)ccc3o2)c2nc[nH]c21` (stereo not shown) was run?
**A.** Its AC50 is 1 to 5 µM.

**Q.** For `Cn1nc(C(C)(C)O)nc1C(=O)N1CCc2[nH]cnc2C1c1nc2cccc(F)c2o1` (stereo not shown), which AC50 is on record?
**A.** The AC50 was 1 to 5 µM.

**Q.** How did the AC50 turn out when `O=C(c1nnc(C2CC(F)(F)C2)o1)N1CCc2[nH]cnc2C1c1nc2cc(F)ccc2o1` (stereo not shown) was run?
**A.** Its AC50 is 1 to 5 µM.

**Q.** With `Cc1nc(C(C)(C)N(C)C)oc1C(=O)N1CCc2[nH]cnc2C1c1nc2cc(F)ccc2o1` (stereo not shown) as the molecule, how does the AC50 read?
**A.** The AC50 was 1 to 5 µM.

**Q.** With `Cc1ccc2nc(C3c4nc[nH]c4CCN3C(=O)c3nnc(-c4ccc(F)cn4)o3)oc2c1` (stereo not shown) as the molecule, how does the AC50 read?
**A.** Its AC50 is 1 to 5 µM.

**Q.** Which AC50 does the source give for `O=C(c1nncn1C1CC1)N1CCc2[nH]cnc2C1c1nc2c(F)cccc2o1` (stereo not shown) here?
**A.** The AC50 was 1 to 5 µM.

**Q.** Which AC50 does the source give for `CC(=O)Cn1cc(C(=O)N2CCc3[nH]cnc3[C@H]2c2nc3cc(F)ccc3o2)cn1` (single isomer, unassigned) here?
**A.** Its AC50 is at least 5 µM.

**Q.** With `O=C(c1ccnn1-c1ccccn1)N1CCc2[nH]cnc2C1c1nc2ccccc2o1` (stereo not shown) as the molecule, how does the AC50 read?
**A.** Its AC50 is 1 to 5 µM.
